Data on 20 compounds can be found in US5760040A, “Indole derivative for treating overproduction of dihydrotestosterone” (Zeria Pharmaceutical Co., Ltd., priority 1994, dated 1998).

Values joined by “and” are separate entries in the source; they are usually repeats but may differ in a detail not shown here. Identical values can stand only once. Like-named read-outs stand apart in the source and are kept apart here.

Test [1] addresses T1, α1 -Adrenoceptor (Oryctolagus cuniculus, UniProt O02824).
T1 construct: smooth muscle strips were prepared from prostate and proximal urethra; from tissue; host or cells: rabbit prostate and proximal urethra smooth muscle strips
T1 sequence (O02824 1-466): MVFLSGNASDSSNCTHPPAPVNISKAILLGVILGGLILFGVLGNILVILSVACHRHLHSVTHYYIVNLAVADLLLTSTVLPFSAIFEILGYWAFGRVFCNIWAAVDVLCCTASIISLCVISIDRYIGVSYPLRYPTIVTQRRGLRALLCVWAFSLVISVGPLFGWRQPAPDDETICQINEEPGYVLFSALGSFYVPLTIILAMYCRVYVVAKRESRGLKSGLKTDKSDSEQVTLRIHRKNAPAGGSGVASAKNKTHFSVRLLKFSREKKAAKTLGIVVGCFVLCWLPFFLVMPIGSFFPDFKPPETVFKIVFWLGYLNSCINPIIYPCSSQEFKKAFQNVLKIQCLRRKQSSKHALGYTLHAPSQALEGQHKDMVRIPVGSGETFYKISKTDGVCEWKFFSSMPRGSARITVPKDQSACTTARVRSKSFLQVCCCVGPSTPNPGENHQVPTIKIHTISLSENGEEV
The test is described as follows: α1-Adrenoceptor blocking action (antagonism of phenylephrine-induced contraction of isolated urethra and prostate strips). In kind it is cell-based, rabbit (male albino). Here is the method: α1 -Adrenoceptor Blocking Action
Male albino rabbits were sacrificed by exsanguination, and the prostate and urethra were isolated. After removal of fat and connective tissues, tranverse smooth muscle strips were prepared from prostate and proximal urethra. Each segmental strip was suspended in an organ bath at 37° C. in a Krebs-Henseleit solution which had been bubbled with 95% O2 and 5% CO2. The isometric contraction under a resting tension of 1 g was recorded with a force-displacement transducer(TB-651T, Nihon Koden) on a recoder(RECTI HORIZ 8K, Nihon Sanei).
After an equilibration of tissues at least 60 minutes, contractions were elicited by repeated dose of phenylephrine until constant contraction responses were obtained. Subsequently, the dose-response curves were obtained by increasing concentrations of phenylephrine(10^-7 -×10^-4 M). After the resting period for 60 minutes, tissues were incubated with test drugs for 30 minutes and dose-response curves were constructed as described above.
In all cases, 10^-5 M propranolol(β-adrenoceptor antagonist) was administered 10 minutes before the contraction by phenylephrine.
The composition of the Krebs-Henseleit solution was as follows(mM): NaCl 118.4, KCl 4.7, MgSO4 1.2, CaCl2 2.5, NaHCO3 25.0, glucose 11.1, KH2 PO4 1.2.
The potency of each test drug was expressed as the pA2 value(negative logarithm of the antagonist dissociation constant).

Test [2] deals with Testosterone 5α-reductase. The test is described as follows: Testosterone 5α-reductase inhibitory action (nuclear fraction of ventral prostate). In kind it is biochemical, rat (male Wistar). The settings on record: rat ventral prostate nuclear fraction; [4-^14 C]-testosterone, NADPH; 60 min at 37° C. Here is the method: Testosterone 5α-Reductase Inhibitory Action
Male Wistar rats (age: 9-10 weeks old) were anesthetized with ethyl ether and ventral prostates were dissected. The isolated prostates were weighed and homogenized with ultradisperser(Yamato, Japan) and teflon-glass homogenizer in 3 tissue volumes of 50 mM Tris-HCl buffer(pH 7.2) containing 0.25M sucrose and 1 mM dithiothreitol. The homogenates were filtered with gauze and centrifuged at 3,000 rpm for 10 minutes at 4° C. The pellets were resuspended in same buffer as described above and the resultant suspension was used as the nuclear fraction.
Testosterone 5α-reductase activity was carried out described as follows. The reaction mixture contained […] of nuclear fraction 0.1 ml of 5 mM NADPH, 0.01 ml of test drug dissolved in dimethylsulfoxide and 0.78ml of Tris-HCl buffer(pH 7.0). The reaction was started by addition of 0.01 ml of 150 μM [4-^14 C]-testosterone and incubated for 60 minutes at 37° C. After incubation, reaction was stopped by adding 4 ml of ethyl acetate. 3 ml of ethyl acetate was evaporated under nitrogen to dryness and dissolved in 40 μl of ethyl acetate. 10 μl of ethyl acetate was applied to silica gel thin layer plate(HF254, Merck) and the plate was developed in ethyl acetate and cyclohexane(1:1). The plate was subjected to autoradiography and the radioactivity profiles were determined by scraping the spots of testosterone, dihydrotestosterone and other metabolites and counting in a scintillation counter. Testosterone 5a -reductase activity was calculated for the total radioactivity and radioactivities of dihydrotestosterone and other metabolites. The inhibitory activity of test drug was expressed as IC50 (nM).

Setting [3] is: isolated rabbit prostate strips, phenylephrine contraction, 30 min incubation with drug, 10^-5 M propranolol, pA2 = negative logarithm of antagonist dissociation constant, read-out: Prostate (pA2) (converted).
Setting [4] is: isolated rabbit proximal urethra strips, phenylephrine contraction, 30 min incubation with drug, 10^-5 M propranolol, pA2 = negative logarithm of antagonist dissociation constant, read-out: Urethra (pA2) (converted).

Turning to `COc1cc(C(=O)c2cn(CCCC(=O)O)c3ccccc23)ccc1OC(CCN1CCN(c2ccccc2OC)CC1)c1ccc(C)cc1` (stereo not drawn) [Example 1, Potassium 4-{3-{3-methoxy-4-{1-(4-methylphenyl)-3-[4-(2-methoxyphenyl)piperazin-1-yl]propoxy}benzoyl}indol-1-yl} butanoate], the Kb was 87.1 nM in test [1] (setting [3]) and 380 nM in test [1] (setting [4]). In addition, half-maximal inhibition in test [2] (IC50) was put at 3.7 nM.

Take `COc1ccccc1N1CCN(CCCOc2ccc(C(=O)c3cn(CCCC(=O)O)c4ccccc34)cc2)CC1` [Example 3, Potassium 4-{3-{4-{3-[4-(2-methoxyphenyl)piperazin-1-yl]propoxy}benzoyl}indol-1-yl}butanoate]: the Kb in test [1] is 115 nM and 75.9 nM.

As to `CC(C)Oc1ccccc1N1CCN(CCC(Oc2ccc(C(=O)c3cn(CCCC(=O)O)c4ccccc34)cc2)c2ccccc2)CC1` (stereo not drawn) [Example 5, 4-{3-{4-{1-Phenyl-3-[4-(2-isopropoxyphenyl)piperazin-1-yl]propoxy}benzoyl}indol-1-yl}butanoic acid], the Kb in test [1] was 1100 nM and 141 nM.

For the compound `Cc1ccc(C(CCN2CCN(c3ccccc3OC(C)C)CC2)Oc2ccc(C(=O)c3cn(CCCC(=O)O)c4ccccc34)cc2)cc1` (stereo not drawn) [Example 8, Potassium 4-{3-{4-{1-(4-methylphenyl)-3-[4-(2-isopropoxyphenyl)piperazin-1-yl]propoxy}benzoyl}indol-1-yl}butanoate], the IC50 – broadly, the midpoint of a concentration-inhibition curve – in test [2] stood at 0.26 nM.

Compound `COc1cc(C(=O)c2cn(CCCC(=O)O)c3ccccc23)ccc1OC(CCN1CCN(c2ccccc2OC(C)C)CC1)c1ccc(C)cc1` (stereo not drawn) [Example 11, Potassium 4-{3-{3-methoxy-4-{1-(4-methylphenyl)-3-[4-(2-isopropoxyphenyl)piperazin-1-yl]propoxy}benzoyl}indol-1-yl}butanoate] returned a 50% inhibitory concentration (IC50) in test [2] of 3.1 nM.

In test [2], `COc1cc(C(=O)c2cn(CCCC(=O)O)c3ccccc23)ccc1OC(CCN1CCN(c2ccccc2OC)CC1)c1ccc(CC(C)C)cc1` (stereo not drawn) [Example 13, Potassium 4-{3-{3-methoxy-4-{1-(4-isobutylphenyl)-3-[4-(2-methoxyphenyl)piperazin-1-yl]propoxy}benzoyl}indol-1-yl}butanoate] came in with an IC50 of 1.4 nM.

On to `COc1cc(C(=O)c2cn(CCCC(=O)O)c3ccccc23)ccc1OC(CCN1CCN(c2ccccc2OC)CC1)c1ccccc1` (stereo not drawn) [Example 14, Potassium 4-{3-{3-methoxy-4-{1-phenyl-3-[4-(2-methoxyphenyl)piperazin-1-yl]propoxy}benzoyl}indol-1-yl}butanoate], for which the Kb in test [1] was 389 nM and 72.4 nM.

In the case of `CCOc1ccccc1N1CCN(CCC(Oc2ccc(C(=O)c3cn(CCCC(=O)O)c4ccccc34)cc2OC)c2ccccc2)CC1` (stereo not drawn) [Example 15, Potassium 4-{3-{3-methoxy-4-{1-phenyl-3-[4-(2-ethoxyphenyl)piperazin-1-yl]propoxy}benzoyl}indol-1-yl}butanoate], the Kb in test [1] was 251 nM and 50.1 nM. The compound also gave an IC50 in test [2] of 7.9 nM.

`COc1cc(C(=O)c2cn(CCCC(=O)O)c3ccccc23)ccc1OC(CCN1CCN(c2ccccc2OC(C)C)CC1)c1ccccc1` (stereo not drawn) [Example 16, Potassium 4-{3-{3-methoxy-4-{1-phenyl-3-[4-(2-isopropoxyphenyl)piperazin-1-yl]propoxy}benzoyl}indol-1-yl}butanoate]: the Kb in test [1] is 155 nM and 85.1 nM.

With `COc1ccc(C(CCN2CCN(c3ccccc3OC)CC2)Oc2ccc(C(=O)c3cn(CCCC(=O)O)c4ccccc34)cc2)cc1` (stereo not drawn) [Example 20, Potassium 4-{3-{4-{1-(4-methoxyphenyl)-3-[4-(2-methoxyphenyl)piperazin-1-yl]propoxy}benzoyl}indol-1-yl}butanoate], in test [1], the Kb is 692 nM and 562 nM.

Regarding `COc1ccccc1N1CCN(CCC(Oc2ccc(C(=O)c3cn(CCCC(=O)O)c4ccccc34)c(C)c2C)c2ccc(C)cc2)CC1` (stereo not drawn) [Example 22, 4-{3-{2,3-Dimethyl-4-{1-(4-methylphenyl)-3-[4-(2-methoxyphenyl)piperazin-1-yl]propoxy}benzoyl}indol-1-yl}butanoic acid], the IC50 in test [2] was 3.7 nM.

Regarding `COc1ccccc1N1CCN(CCCOc2ccc(C(=O)c3cn(CCCC(=O)O)c4ccccc34)cc2OCc2ccccc2)CC1` [Example 24, 4-{3-{3-Benzyloxy-4-{3-[4-(2-methoxyphenyl)piperazin-1-yl]propoxy}benzoyl}indol-1-yl}butanoic acid], the Kb in test [1] is 631 nM and 100 nM.

In turn, `COc1ccccc1N1CCN(CCC(Oc2ccc(C(=O)c3cn(CCCC(=O)O)c4ccccc34)cc2OCc2ccccc2)c2ccc(C)cc2)CC1` (stereo not drawn) [Example 26, 4-{3-{3-Benzyloxy-4-{1-(4-methylphenyl)-3-[4-(2-methoxyphenyl)piperazin-1-yl]propoxy}benzoyl}indol-1-yl}butanoic acid] yielded a half-maximal inhibitory concentration (IC50) in test [2] of 5 nM.

`COc1ccccc1N1CCN(CCC(Oc2cccc(C(=O)c3cn(CCCC(=O)O)c4ccccc34)c2)c2ccc(C)cc2)CC1` (stereo not drawn) [Example 28, Potassium 4-{3-{3-{1-(4-methylphenyl)-3-[4-(2-methoxyphenyl)piperazin-1-yl]propoxy}benzoyl}indol-1-yl}butanoate]: the Kb in test [1] is 166 nM and 102 nM.

In the case of `COc1cc(C(=O)c2cn(CCCC(=O)O)c3ccccc23)ccc1O[C@@H](CCN1CCN(c2ccccc2OC)CC1)c1ccccc1` [Example 35, Potassium S-4-{3-{3-methoxy-4-{1-phenyl-3-[4-(2-methoxyphenyl)piperazin-1-yl]propoxy}benzoyl}indol-1-yl}butanoate], the Kb in test [1] (setting [3]) was 27.5 nM; in test [1] (setting [4]), 64.6 nM. For the same compound, the IC50 in test [2] stood at 6.8 nM.

On to `COc1ccccc1N1CCN(CCCOc2cc(C(=O)c3cn(CCCC(=O)O)c4ccccc34)ccc2OCc2ccc(C)cc2)CC1` [Example 37, Potassium 4-{3-{4-(4-methylphenylmethoxy)-3-{3-[4-(2-methoxyphenyl)piperazin-1-yl]propoxy}benzoyl}indol-1-yl}butanoate], for which, in test [1], the Kb was 120 nM and 19.1 nM. The compound also gave an IC50 in test [2] of 3.5 nM.

As to `COc1ccccc1N1CCN(CCCOc2cc(C(=O)c3cn(CCCC(=O)O)c4ccccc34)ccc2OCc2ccccc2)CC1` [Example 38, Potassium 4-{3-{4-benzyloxy-3-{3-[4-(2-methoxyphenyl)piperazin-1-yl]propoxy}benzoyl}indol-1-yl}butanoate], the Kb in test [1] was 36.3 nM and 16.6 nM.

Take `COc1ccccc1N1CCN(CCCOc2cc(C(=O)c3cn(CCCC(=O)O)c4ccccc34)ccc2OCc2ccc(F)cc2)CC1` [Example 42, Potassium 4-{3-{4-(4-fluorophenylmethoxy)-3-{3-[4-(2-methoxyphenyl)piperazin-1-yl]propoxy}benzoyl}indol-1-yl}butanoate]: in test [1], the Kb was 398 nM and 70.8 nM.

In the case of `CCOc1ccccc1N1CCN(CCCOc2cc(C(=O)c3cn(CCCC(=O)O)c4ccccc34)ccc2OCc2ccc(C)cc2)CC1` [Example 45, Potassium 4-{3-{4-(4-methylphenylmethoxy)-3-{3-[4-(2-ethoxyphenyl)piperazin-1-yl]propoxy}benzoyl}indol-1-yl}butanoate], the Kb in test [1] was 56.2 nM and 34.7 nM. Besides, the IC50 in test [2] was 1.5 nM.

In test [2], `COc1ccccc1N1CCN(CCCCOc2cc(C(=O)c3cn(CCCC(=O)O)c4ccccc34)ccc2OCc2ccc(C)cc2)CC1` [Example 46, Potassium 4-{3-{3-{4-[4-(2-methoxyphenyl)piperazin-1-yl]butoxy}-4-(4-methylphenylmethoxy)benzoyl}indol-1-yl}butanoate] showed an IC50 of 1.5 nM.
